# Results reported in patent publication US6599893B2, “Cephalosporin antibiotics and prodrugs thereof” (Essential Therapeutics, Inc., priority 2000, dated 2003).
# Like-named read-outs stand apart in the source and are kept apart here.
# Legend:
# [1] = system: Staphylococcus aureus Smith (MSSA); assay: Broth microdilution MIC, S. aureus Smith; format: cell-based; details: Staphylococcus aureus Smith (MSSA); for MIC: read-out: MIC S. a. Smith
# Protocol: (§1) Compounds were evaluated for antimicrobial activity against a panel of bacterial strains using a broth microdilution assay performed as recommended by the NCCLS (NCCLS (National Committee for Clinical Laboratory Standards). 1993. Methods for dilution antimicrobial susceptibility tests for bacteria that grow aerobically. NCCLS Document M7-A3, 1993. In: NCCLS Antimicrobial Susceptibility Testing, 3rd Ed.)
# (§2) The minimum inhibitory concentration (MIC) is defined as the lowest concentration of a compound that prevents the growth of the bacteria.
# [2] = system: Staphylococcus aureus COL (MRSA, non-β-lactamase producing); assay: Broth microdilution MIC, S. aureus COL; format: cell-based; details: Staphylococcus aureus COL (MRSA, non-β-lactamase producing); for MIC: read-out: MIC S. a. COL
# Protocol: as §1, §2
# S. aureus strain Smith = assay: Experimental infection of mice, ED50; format: in vivo, Swiss-Webster mice; details: 50% efficacious dose, S. aureus Smith, mice challenged intraperitoneally, compound subcutaneously at 0 and 2 h, total dose, 72 h survival; for ED50: Staphylococcus aureus, read-out: ED50, mg/kg (95% C.I.)
# Protocol: Staphylococcus aureus strain Smith (ATCC 13709, penicillin-susceptible) or strain 76 (methicillin-resistant) was cultured overnight at 37° C. in brain-heart infusion broth (BHIB). The following morning, a portion of the culture was transferred to fresh BHIB and incubated for an additional 4-5 hours at 37° C. The cells were harvested by centrifugation, washed twice with PBS, and adjusted to the desired inoculum amount. The cell suspension was mixed with an equal volume of sterile 14% hog-gastric mucin (Comber K. R.; Osborne C. D.; Sutherland R.: Comparative effects of amoxicillin and ampicillin in the treatment of experimental mouse infections. Antimicrobial Agents and Chemotherapy 7(2):179-185, 1975). The inoculum was kept in an ice bath until used (preferably in less than one hour).
# Male Swiss-Webster mice were challenged intraperitoneally with 0.5 mL of a bacterial suspension of S. aureus strain Smith (LD50). Test compounds were administered subcutaneously in 0.1 mL volumes immediately after inoculation and 2 hours later. […] The total dose associated with 50% survival (ED50) was determined using the probit method (Pasiello, A. P., J. M. Essigmann, and G. N. Wogan.: Rapid and accurate determination of median lethal dose (LD50) and its error with a small computer. J Toxicol. Environ. Health. 3:797-809, 1977).
# [3] = system: Staphylococcus aureus ATCC 29213 (MSSA); assay: Broth microdilution MIC, S. aureus ATCC 29213; format: cell-based; details: Staphylococcus aureus ATCC 29213 (MSSA); for MIC: read-out: MIC S. a. 29213
# Protocol: as §1, §2
# [4] = system: Enterococcus faecium ATCC 35667; assay: Broth microdilution MIC, E. faecium ATCC 35667; format: cell-based; details: Enterococcus faecium ATCC 35667; for MIC: ATCC35667, read-out: MIC E. f. 35667
# Protocol: as §1, §2
# [5] = system: Staphylococcus aureus 76 (MRSA, β-lactamase producing); assay: Broth microdilution MIC, S. aureus 76; format: cell-based; details: Staphylococcus aureus 76 (MRSA, β-lactamase producing); for MIC: read-out: MIC S. a. 76
# Protocol: as §1, §2
# [6] = system: Enterococcus faecalis ATCC 29212; assay: Broth microdilution MIC, E. faecalis ATCC 29212; format: cell-based; details: Enterococcus faecalis ATCC 29212; for MIC: ATCC29212, read-out: MIC E. f. 29212
# Protocol: as §1, §2
# [7] = Human serum binding by ultrafiltration; format: in vitro ADME
# Protocol: Binding of several representative compounds of this invention in pooled human serum was determined using ultrafiltration. Compounds were incubated in serum for 10 minutes at 37° C. in a shaking water bath. Serum ultrafiltrate was accomplished by centrifugation (Amicon Centrifree) for 20 minutes at 25° C. Compound content in the ultrafiltrate was quantified by HPLC. An ultrafilrate obtained by following the same procedure with no added compound was used as a standard.
# [8] = pooled human serum, ultrafiltration, 10 minutes at 37° C.
MIC [1],MIC [2],MIC [3],MIC [4],MIC [5],MIC [6],"HSB, human serum binding [7, 8]",MIC S. a. Smith [1],MIC S. a. COL [2],MIC S. a. 29213 [3],MIC E. f. 35667 [4],MIC S. a. 76 [5],MIC E. f. 29212 [6],SMILES,ED50 (S. aureus strain Smith),"HSB, human serum binding [7]","ED50, mg/kg (95% C.I.) (S. aureus strain Smith)"
0.5 µg/mL,2 µg/mL,0.5 µg/mL,4 µg/mL,4 µg/mL,2 µg/mL,,,,,,,,Nc1nc(/C(=N/OC2CCCC2)C(=O)N[C@@H]2C(=O)N3C(C(=O)O)=C(Sc4ccnn4-c4ccccc4)CS[C@H]23)cs1 [Compound 13],> 10 mg/kg,,
,2 µg/mL,0.5 µg/mL,4 µg/mL,4 µg/mL,2 µg/mL,,,,,,,,CCC(CC)O/N=C(\C(=O)N[C@@H]1C(=O)N2C(C(=O)O)=C(Sc3ccnn3-c3ccccc3)CS[C@H]12)c1csc(N)n1 [Compound 17],> 10 mg/kg,,
0.5 µg/mL,4 µg/mL,0.5 µg/mL,16 µg/mL,8 µg/mL,16 µg/mL,,,,,,,,Nc1nc(/C(=N/OCC2CC2)C(=O)N[C@@H]2C(=O)N3C(C(=O)O)=C(Sc4ccnn4-c4ccccc4)CS[C@H]23)cs1 [Compound 19],> 10 mg/kg,,
0.25 µg/mL,2 µg/mL,0.25 µg/mL,2 µg/mL,2 µg/mL,0.5 µg/mL,98%,,,,,,,Nc1nc(/C(=N/O)C(=O)N[C@@H]2C(=O)N3C(C(=O)O)=C(Sc4ccncc4)CS[C@H]23)c(Cl)s1 [Compound 21],3.6 mg/kg,,
,,,,,,,0.25 µg/mL,1 µg/mL,0.25 µg/mL,0.25 µg/mL,2 µg/mL,0.125 µg/mL,Nc1nc(/C(=N/O)C(=O)N[C@@H]2C(=O)N3C(C(=O)O)=C(Sc4ccncc4CSc4ccncc4)CS[C@H]23)c(Cl)s1 [Compound 25],,>99%,>5 mg/kg
,,,,,,>99%,0.06 µg/mL,1 µg/mL,0.25 µg/mL,0.5 µg/mL,2 µg/mL,0.25 µg/mL,Nc1nnc(SCc2cnccc2SC2=C(C(=O)O)N3C(=O)[C@@H](NC(=O)/C(=N\O)c4nc(N)sc4Cl)[C@H]3SC2)s1 [Compound 26],,,0.38 (01-0.7) mg/kg

SMILES,MIC [1],MIC [2],MIC [3],MIC [4],MIC [5],MIC [6],"HSB, human serum binding [7, 8]",MIC S. a. Smith [1],MIC S. a. COL [2],MIC S. a. 29213 [3],MIC E. f. 35667 [4],MIC S. a. 76 [5],MIC E. f. 29212 [6],ED50 (S. aureus strain Smith),"HSB, human serum binding [7]","ED50, mg/kg (95% C.I.) (S. aureus strain Smith)"
Nc1nc(/C(=N/O)C(=O)N[C@@H]2C(=O)N3C(C(=O)O)=C(Sc4ccncc4CSCCNC=O)CS[C@H]23)c(Cl)s1 [Compound 27],,,,,,,,0.25 µg/mL,2 µg/mL,0.25 µg/mL,1 µg/mL,4 µg/mL,0.25 µg/mL,,94%,2.27 (1.0-5.5) mg/kg
